Reference: patent publication US10941382B2, “Platelet production promoter and method of producing platelets using same” (Kyoto University, priority 2016, dated 2021)

How the values were obtained:
[1] = system: reporter immortalized megakaryocyte cell line (MKCL#12-23 cre2); experiment: VENUS fluorescence intensity of reporter immortalized megakaryocyte cell line cultured with inhibitor; format: cell-based, human; details: 7th day of culture; 96-well dish; medium with 10 μM Y-27632, 50 ng/mL TPO, 50 ng/mL SCF; versus 0.1% DMSO negative control
Experimental: The platelet production-promoting effect of a Wnt inhibitor and FLT3 inhibitor was then investigated. The aforementioned reporter immortalized megakaryocyte cell line (MKCL#12-23 cre2) was cultured in a 96-well dish on a differentiation medium supplemented with the particular inhibitor at a prescribed concentration, 10 μM Y-27632, 50 ng/mL TPO, and 50 ng/mL SCF, or on a differentiation medium supplemented with 0.75 μM SR1, 10 μM Y-27632, 50 ng/mL TPO, and 50 ng/mL SCF (positive control), or on a differentiation medium supplemented with 0.1% DMSO, 10 μM Y-27632, 50 ng/mL TPO, and 50 ng/mL SCF (negative control). When the VENUS fluorescence intensity was measured on the cells on the 7th day of culture, the fluorescence intensity was increased for media to which the Wnt inhibitor or FLT3 inhibitor had been added. The results of calculation of the relative fluorescence intensity are given in FIG. 3, where the platelet count for use of the particular inhibitor was corrected with the platelet count for the positive control (made 100%) and the platelet count for the negative control (made 0%).

[2] = system: MKCL SeV2; experiment: Relative number of platelets by FACS (anti-CD41/anti-CD42b) from immortalized megakaryocyte line cultured with inhibitor; format: cell-based, human; details: 7th day of cultivation; 6-well dish; medium with 10 μM Y-27632, 50 ng/mL TPO, 50 ng/mL SCF; conclusion from FIG. 3 and FIG. 4 results
Experimental: The platelet production-promoting effect of the Wnt inhibitor and FLT3 inhibitor was then investigated. MKCL SeV2, on which the aforementioned reporter immortalized megakaryocyte cell line (MKCL#12-23 cre2) was based, was cultured in a 6-well dish on a differentiation medium supplemented with the Wnt or FLT3 inhibitor, 10 μM Y-27632, 50 ng/mL TPO, and 50 ng/mL SCF, or on a differentiation medium supplemented with 0.75 μM SR1, 10 μM Y-27632, 50 ng/mL TPO, and 50 ng/mL SCF (positive control), or on a differentiation medium supplemented with 0.1% DMSO, 10 μM Y-27632, 50 ng/mL TPO, and 50 ng/mL SCF (negative control). On the 7th day of cultivation, the culture medium was suspended and the supernatant was recovered; staining with anti-CD41 antibody and anti-CD42b antibody was performed; and FACS analysis was carried out. The relative number of platelets was calculated with correction of the platelet count for use of the particular inhibitor with the platelet count for the positive control (made 100%) and the platelet count for the negative control (made 0%) (FIG. 4).

[3] = system: iPS cells (TkDA3-4); experiment: Platelet production from iPS cell-derived cells under nonuse of feeder cells, FACS (anti-CD41/anti-CD42b); format: cell-based; details: 10 days of culture, 1 μM C59 or 3.3 μM FLT3 inhibitor versus 0.75 μM SR1, heparin, Y-27632, TPO, SCF
Experimental: iPS cells (TkDA3-4) were cultured and a colony was detached using a cell scraper and was cultured on a differentiation medium supplemented with […] VEGF. After 14 days, the cells were recovered using a cell scraper and 25 U/mL heparin, 10 μM Y-27632, 100 ng/mL TPO, and 50 ng/mL SCF were added. 0.1% DMSO, 0.75 μM SR1, 1 μM C59 (Calbiochem), or 3.3 μM FLT3 inhibitor (Santa Cruz Biotechnology) was also added to this culture medium and culture was carried out for 10 days. This was also carried out under the condition of the use of feeder cells as described above. The obtained cells were suspended and the supernatant was recovered; staining with anti-CD41 antibody and anti-CD42b antibody was performed; and FACS analysis was carried out (FIG. 4).

Row | SMILES | VENUS fluorescence intensity [1] | platelet production-promoting effect (platelet inducer) [2] | platelet production capacity compared with SR1 [3]
1 | Cc1cc(-c2ccc(CC(=O)Nc3ccc(-c4cccnc4)cc3)cc2)ccn1 [C59, 4-(2-methyl-4-pyridinyl)-N-[4-(3-pyridinyl)phenyl]benzeneacetamide] | increased | strong platelet inducers | same as or greater
2 | COc1ccc(C(=O)Nc2sc3c(c2C(N)=O)CCCC3)cc1OC [FLT3 inhibitor, 2-[(3,4-dimethoxybenzoyl)amino]-4,5,6,7-tetrahydrobenzo[b]thiophene-3-carboxamide] | increased | strong platelet inducers | same as or greater
